Key:
Assay type in all cases: biochemical
PDE1A = PDE1A (Homo sapiens, UniProt P54750); experiment: PDE1 inhibition assay (PDE1A); conditions: 15 nM tritium labelled cAMP, SPA
Method: (§1) PDE1A, PDE1B and PDE1C assays were performed as follows: the assays were performed in 60 μL samples containing a fixed amount of the PDE1 enzyme (sufficient to convert 20-25% of the cyclic nucleotide substrate), a buffer (50 mM HEPES (4-(2-hydroxyethyl)-1-piperazineethanesulfonic acid) pH 7.6; 10 mM MgCl2; 0.02% Tween20), 0.1 mg/ml BSA (bovine serum albumin), 15 nM tritium labelled cAMP and varying amounts of inhibitors. Reactions were initiated by addition of the cyclic nucleotide substrate, and reactions were allowed to proceed for 1 hr at room temperature before being terminated through mixing with 20 μL (0.2 mg) yttrium silicate SPA beads (PerkinElmer). The beads were allowed to settle for 1 hour in the dark before the plates were counted in a Wallac 1450 Microbeta counter. The measured signals were converted to activity relative to an uninhibited control (100%) and IC50 values were calculated using XlFit (model 205, IDBS).

PDE9 = PDE9 (Homo sapiens, UniProt O76083); experiment: PDE9 inhibition assay; conditions: 10 μM of inhibitor
Chain of PDE9 (O76083 whole entry): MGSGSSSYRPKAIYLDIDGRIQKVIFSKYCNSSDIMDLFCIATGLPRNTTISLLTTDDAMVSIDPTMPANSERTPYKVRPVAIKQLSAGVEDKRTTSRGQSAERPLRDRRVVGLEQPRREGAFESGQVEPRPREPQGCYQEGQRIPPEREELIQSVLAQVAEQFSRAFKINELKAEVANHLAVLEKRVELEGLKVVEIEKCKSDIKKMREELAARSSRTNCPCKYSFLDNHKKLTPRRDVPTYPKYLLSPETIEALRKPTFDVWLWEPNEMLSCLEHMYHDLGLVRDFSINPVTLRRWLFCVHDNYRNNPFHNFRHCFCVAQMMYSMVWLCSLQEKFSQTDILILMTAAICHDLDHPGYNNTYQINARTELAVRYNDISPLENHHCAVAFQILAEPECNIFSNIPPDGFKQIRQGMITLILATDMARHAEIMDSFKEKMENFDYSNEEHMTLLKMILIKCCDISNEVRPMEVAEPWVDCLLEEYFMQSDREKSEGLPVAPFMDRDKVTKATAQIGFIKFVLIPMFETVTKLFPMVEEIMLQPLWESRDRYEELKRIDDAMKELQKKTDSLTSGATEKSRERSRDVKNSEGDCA
Method: A PDE9 assay may for example, be performed as follows: The assay is performed in 60 μL samples containing a fixed amount of the relevant PDE enzyme (sufficient to convert 20-25% of the cyclic nucleotide substrate), a buffer (50 mM HEPES pH 7.6; 10 mM MgCl2; 0.02% Tween20), 0.1 mg/ml BSA, 225 pCi of ^3H-labelled cyclic nucleotide substrate, tritium labeled cAMP to a final concentration of 5 nM and varying amounts of inhibitors. Reactions are initiated by addition of the cyclic nucleotide substrate, and reactions are allowed to proceed for one hr at room temperature before being terminated through mixing with 15 μL 8 mg/mL yttrium silicate SPA beads (Amersham). The beads are allowed to settle for one hr in the dark before the plates are counted in a Wallac 1450 Microbeta counter. The measured signal can be converted to activity relative to an uninhibited control (100%) and IC50 values can be calculated using the Xlfit extension to EXCEL.
In the context of the present invention the assay was performed in 60 μL assay buffer (50 mM HEPES pH 7.6; 10 mM MgCl2; 0.02% Tween20) containing enough PDE9 to convert 20-25% of 10 nM ^3H-cAMP, and […] 10 μM of inhibitor. Following 1 hr incubation the reactions were terminated by addition of 15 μL 8 mg/mL yttrium silicate SPA beads (Amersham). The beads were allowed to settle for one hr in the dark before the plates were counted in a Wallac 1450 Microbeta counter.

PDE1B = PDE1B (Homo sapiens, UniProt Q01064); experiment: PDE1 inhibition assay (PDE1B); conditions: 15 nM tritium labelled cAMP, SPA
Chain of PDE1B (Q01064 whole entry): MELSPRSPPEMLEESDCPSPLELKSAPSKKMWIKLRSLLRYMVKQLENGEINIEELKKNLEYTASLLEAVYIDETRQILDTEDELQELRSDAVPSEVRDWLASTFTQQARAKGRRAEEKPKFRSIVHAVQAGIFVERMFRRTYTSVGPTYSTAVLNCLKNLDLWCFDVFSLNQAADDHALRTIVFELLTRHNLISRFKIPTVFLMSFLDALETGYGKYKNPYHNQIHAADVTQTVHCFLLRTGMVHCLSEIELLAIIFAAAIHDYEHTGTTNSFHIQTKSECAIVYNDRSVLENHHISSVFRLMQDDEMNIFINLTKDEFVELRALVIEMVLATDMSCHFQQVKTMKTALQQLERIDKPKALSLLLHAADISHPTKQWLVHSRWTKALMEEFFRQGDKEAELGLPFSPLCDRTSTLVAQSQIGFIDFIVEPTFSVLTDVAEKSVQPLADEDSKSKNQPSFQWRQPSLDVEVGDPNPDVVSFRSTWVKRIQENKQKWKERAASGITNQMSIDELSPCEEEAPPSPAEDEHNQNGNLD
Method: as §1

PDE1C = PDE1C (Homo sapiens, UniProt Q14123); experiment: PDE1 inhibition assay (PDE1C); conditions: 15 nM tritium labelled cAMP, SPA
Chain of PDE1C (Q14123 whole entry): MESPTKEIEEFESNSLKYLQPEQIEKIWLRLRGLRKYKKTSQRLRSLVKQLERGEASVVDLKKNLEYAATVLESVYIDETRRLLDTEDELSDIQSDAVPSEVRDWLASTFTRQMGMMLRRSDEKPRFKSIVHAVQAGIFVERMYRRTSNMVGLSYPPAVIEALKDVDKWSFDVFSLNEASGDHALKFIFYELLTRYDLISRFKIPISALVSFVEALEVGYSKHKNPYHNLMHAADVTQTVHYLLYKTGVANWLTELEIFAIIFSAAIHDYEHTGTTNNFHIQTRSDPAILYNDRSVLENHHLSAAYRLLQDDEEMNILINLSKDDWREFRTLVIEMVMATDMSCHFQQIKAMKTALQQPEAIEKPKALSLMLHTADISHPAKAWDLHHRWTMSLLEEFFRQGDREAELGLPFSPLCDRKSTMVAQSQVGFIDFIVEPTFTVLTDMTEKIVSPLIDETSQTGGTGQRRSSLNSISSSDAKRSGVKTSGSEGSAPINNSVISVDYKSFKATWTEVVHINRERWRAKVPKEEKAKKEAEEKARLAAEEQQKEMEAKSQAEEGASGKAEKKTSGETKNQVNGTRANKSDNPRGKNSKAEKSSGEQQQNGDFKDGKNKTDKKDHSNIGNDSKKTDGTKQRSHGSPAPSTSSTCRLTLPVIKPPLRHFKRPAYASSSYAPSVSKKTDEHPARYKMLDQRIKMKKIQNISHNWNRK
Method: as §1

Chain of PDE1A (P54750 whole entry): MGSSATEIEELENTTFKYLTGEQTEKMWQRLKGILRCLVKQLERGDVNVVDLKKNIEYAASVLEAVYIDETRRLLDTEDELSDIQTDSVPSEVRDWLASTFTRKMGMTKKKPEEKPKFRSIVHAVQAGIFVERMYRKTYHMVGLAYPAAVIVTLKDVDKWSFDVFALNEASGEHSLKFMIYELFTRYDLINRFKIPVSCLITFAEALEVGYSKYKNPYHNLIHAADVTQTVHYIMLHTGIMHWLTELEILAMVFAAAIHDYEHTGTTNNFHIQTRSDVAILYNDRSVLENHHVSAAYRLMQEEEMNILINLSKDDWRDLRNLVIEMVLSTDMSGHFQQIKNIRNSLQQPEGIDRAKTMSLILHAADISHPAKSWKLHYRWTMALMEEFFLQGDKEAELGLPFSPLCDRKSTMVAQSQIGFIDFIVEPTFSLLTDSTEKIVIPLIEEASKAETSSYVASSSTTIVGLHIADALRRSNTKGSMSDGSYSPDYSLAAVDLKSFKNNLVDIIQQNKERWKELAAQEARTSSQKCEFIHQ

Row | Structure (SMILES) | IC50 (PDE1A) [nM] | inhibition at 10 µM (PDE9) [%] | IC50 (PDE1B) [nM] | IC50 (PDE1C) [nM]
1 | Cn1c(Cc2ccc(-c3cccc(C(F)F)n3)cc2)cn2c(C3CCOCC3)ncc2c1=O [Example 15, 6-[[4-[6-(difluoromethyl)-2-pyridyl]phenyl]methyl]-7-methyl-3-tetrahydropyran-4-yl-imidazo[1,5-a]pyrazin-8-one] | 58 | 6 | 14 | 87
2 | COc1cccc(-c2ccc(Cc3cn4c(C5CCOCC5)ncc4c(=O)n3C)cc2)n1 [Example 16, 6-[[4-(6-methoxy-2-pyridyl)phenyl]methyl]-7-methyl-3-tetrahydropyran-4-yl-imidazo[1,5-a]pyrazin-8-one] | 24 | 7 | 4.7 | 42
3 | Cc1ccccc1-c1ccc(Cc2cn3c(C4CCOCC4)ncc3c(=O)n2C)cc1 [Example 18, 7-methyl-6-[[4-(o-tolyl)phenyl]methyl]-3-tetrahydropyran-4-yl-imidazo[1,5-a]pyrazin-8-one] | 117 | 9 | 23 | 238
4 | Cn1c(Cc2ccc(-c3ccccc3)cc2)cn2c(C3CCOCC3)ncc2c1=O [Example 19, 7-methyl-6-[(4-phenylphenyl)methyl]-3-tetrahydropyran-4-yl-imidazo[1,5-a]pyrazin-8-one] | 28 | 7 | 7.3 | 61
5 | CC(C)c1ncc2c(=O)n(C)c(Cc3ccc(-c4cccc(F)n4)cc3)cn12 [Example 21, 6-[[4-(6-fluoro-2-pyridyl)phenyl]methyl]-3-isopropyl-7-methyl-imidazo[1,5-a]pyrazin-8-one] | 36 | 13 | 13 | 93
6 | CCCc1ncc2c(=O)n(C)c(Cc3ccc(-c4cccc(F)n4)cc3)cn12 [Example 22, 6-(4-(6-fluoropyridin-2-yl)benzyl)-7-methyl-3-propylimidazo[1,5-a]pyrazin-8(7H)-one] | 168 | 2 | 40 | 310
7 | CCc1ncc2c(=O)n(C)c(Cc3ccc(-c4cccc(F)n4)cc3)cn12 [Example 23, 3-ethyl-6-(4-(6-fluoropyridin-2-yl)benzyl)-7-methylimidazo[1,5-a]pyrazin-8(7H)-one] | 176 | 17 | 56 | 578
8 | Cn1c(Cc2ccc(-c3cccc(F)n3)cc2)cn2c(CC(F)(F)F)ncc2c1=O [Example 25, 6-(4-(6-fluoropyridin-2-yl)benzyl)-7-methyl-3-(2,2,2-trifluoroethyl)imidazo[1,5-a]pyrazin-8(7H)-one] | 218 | 9 | 90 | 400

Continued, values first:

Row | IC50 (PDE1A) [nM] | inhibition at 10 µM (PDE9) [%] | IC50 (PDE1B) [nM] | IC50 (PDE1C) [nM] | Structure (SMILES)
9 | 62 | 14 | 5.2 | 67 | Cn1c(Cc2ccc(-c3cccc(F)n3)cc2)cn2c(C3CCOCC3)ncc2c1=O [Example 14, 6-[[4-(6-fluoro-2-pyridyl)phenyl]methyl]-7-methyl-3-tetrahydropyran-4-yl-imidazo[1,5-a]pyrazin-8-one]
10 | 87 | 2 | 21 | 161 | COc1cccnc1-c1ccc(Cc2cn3c(C4CCOCC4)ncc3c(=O)n2C)cc1 [Example 17, 6-[[4-(3-methoxy-2-pyridyl)phenyl]methyl]-7-methyl-3-tetrahydropyran-4-yl-imidazo[1,5-a]pyrazin-8-one]
11 | 75 | -6 | 17 | 157 | Cn1cnc(-c2ccc(Cc3cn4c(C5CCOCC5)ncc4c(=O)n3C)cc2)c1 [Example 20, 7-methyl-6-(4-(1-methyl-1H-imidazol-4-yl)benzyl)-3-(tetrahydro-2H-pyran-4-yl)imidazo[1,5-a]pyrazin-8(7H)-one]
12 | 91 | -2 | 30 | 198 | Cn1c(Cc2ccc(-c3cnccn3)cc2)cn2c(C3CCOCC3)ncc2c1=O [Example 24, 7-methyl-6-(4-(pyrazin-2-yl)benzyl)-3-(tetrahydro-2H-pyran-4-yl)imidazo[1,5-a]pyrazin-8(7H)-one]
13 | 68 | 14 | 16 | 149 | Cn1c(Cc2ccc(-c3ccncn3)cc2)cn2c(C3CCOCC3)ncc2c1=O [Example 26, 7-methyl-6-(4-(pyrimidin-4-yl)benzyl)-3-(tetrahydro-2H-pyran-4-yl)imidazo[1,5-a]pyrazin-8(7H)-one]

— patent US10633382B2, “Imidazopyrazinones, pyrazolopyrimidinones and pyrazolopyridinones as PDE1 inhibitors” (H. Lundbeck A/S, priority 2016, dated 2020)
